Test results published in patent US12552798B2, “Substituted imidazolecarboxamide as Bruton's tyrosine kinase inhibitors” (Henan Zhiwei Biomedicine Co., Ltd., priority 2019, dated 2026).
Like-named read-outs stand apart in the source and are kept apart here.

Assays:
BTK = BTK (Homo sapiens (Human), UniProt Q06187); assay: BTK kinase inhibitory assay (ELISA); type: biochemical; settings: 3 μmol/L ATP
Experimental: (§1) BTK, EGFR, BMX, or ITK Inhibitory Assay Procedure for BTK, BMX, EGFR and ITK Inhibitory Assay:
(§2) Kinase inhibitory activities of compounds were evaluated using the Enzyme-linked immunosorbent assay (ELISA). The kinase enzyme of BTK, BMX, EGFR and ITK were purchased from Carna Bioscience (Kobe, Japan). A total of 10 ng/mL antiphosphotyrosine (PY713) antibody (abcam, Cambridge Science Park, UK) was precoated in 96-well ELISA plates. The kinase enzymes in each reaction well were set to BTK (101.25 ng/mL), BMX (90 ng/mL), EGFR (90 ng/mL) or ITK (120 ng/mL) and incubated with indicated compounds in 1× reaction buffer (50 mmol/L HEPES pH 7.4, 20 mmol/L MgCl2, 0.1 mmol/L MnCl2, 1 mmol/L DTT) containing 20 μmol/L (the final concentration of substrate in ITK reaction was 30 μmol/L) substrate (NH2-ETVYSEVRK-biotin) at 25° C. for 1 h. Then, a total of 3 μmol/L ATP was added and the reaction was continued for 2 hrs. The products of reaction were transferred into 96-well ELISA plates containing antibody and incubated at 25° C. for 30 min. After incubation, the wells were washed with PBS and then incubated with horseradish peroxidase […]-conjugated streptavidin. The wells were visualized using 3,3′,5,5′-tetramethylbenzidine (TMB), and chromogenic reaction was ended with 2 mol/L H2SO4, the absorbance was read with a multimode plate reader (PerkinElmer, USA) at 450 nm. IC50 values and curve fits were obtained using Prism (GraphPad Software).

BMX = BMX (Homo sapiens (Human), UniProt P51813); assay: BMX kinase inhibitory assay (ELISA); type: biochemical; settings: for Selectivity Ratio (BTK and BMX): BMX IC50 relative to BTK IC50; for IC50: ELISA, 3 μmol/L ATP
Experimental: as §1, §2

EGFR = EGFR (Homo sapiens (Human), UniProt P00533); assay: EGFR kinase inhibitory assay (ELISA); type: biochemical; settings: for Selectivity Ratio (BTK and EGFR): EGFR IC50 relative to BTK IC50; for IC50: ELISA, 3 μmol/L ATP
Experimental: as §1, §2

ITK = ITK (Homo sapiens (Human), UniProt Q08881); assay: ITK kinase inhibitory assay (ELISA); type: biochemical; settings: for IC50: ELISA, 3 μmol/L ATP; for Selectivity Ratio (BTK and ITK): ITK IC50 relative to BTK IC50
Experimental: as §1, §2

TMD8 = assay: Cell antiproliferative activity assay (CellTiter-Glo), TMD8; type: cell-based; settings: read-out: Cell Growth IC50 (nM) TMD8
Experimental: (§3) Cell Antiproliferative Activity Assay
(§4) Cell antiproliferative activity was evaluated by the CellTiter-Glo (Promega, USA) assay. Make 1000× compounds solution in DMSO, add 1 μl 1000× compounds to […] growth medium to make 20× compounds. Dilute cell suspensions in growth medium to desired density and 95 μl were taken to 96-well plate. Add 5 μl 20× compounds into 96-well plate according to the plate map. Final DMSO concentration in each well was 0.1%. Then the cell was incubated at 37° C., 5% CO2 for 72 hs. Equilibrate the assay plate to room temperature before measurement. Add 20 μl of CellTiter-Glo© Reagent into each well. Mix contents for 2 minutes on an orbital shaker to induce cell lysis. Incubate at room temperature for 10 minutes to stabilize luminescent signal. Record luminescence using EnVision Multilabel Reader (PerkinElmer). Cell viability (CV %) was calculated relative to vehicle (DMSO) treated control wells using following formula: Cell viability (%)=(RLU compound−RLU blank)/(RLU control−RLU blank)*100%. The IC50 values were calculated using GraphPad Prism 6.0 software, fitting to a 4-parameter equation to generate concentration response curves. All assays were conducted with three parallel samples and three repetitions.

293T = assay: Cell antiproliferative activity assay (CellTiter-Glo), 293T; type: cell-based; settings: 72 hs, read-out: Cell Growth IC50 (nM) 293T
Experimental: as §3, §4

EGFR, sequence (P00533 25-1210): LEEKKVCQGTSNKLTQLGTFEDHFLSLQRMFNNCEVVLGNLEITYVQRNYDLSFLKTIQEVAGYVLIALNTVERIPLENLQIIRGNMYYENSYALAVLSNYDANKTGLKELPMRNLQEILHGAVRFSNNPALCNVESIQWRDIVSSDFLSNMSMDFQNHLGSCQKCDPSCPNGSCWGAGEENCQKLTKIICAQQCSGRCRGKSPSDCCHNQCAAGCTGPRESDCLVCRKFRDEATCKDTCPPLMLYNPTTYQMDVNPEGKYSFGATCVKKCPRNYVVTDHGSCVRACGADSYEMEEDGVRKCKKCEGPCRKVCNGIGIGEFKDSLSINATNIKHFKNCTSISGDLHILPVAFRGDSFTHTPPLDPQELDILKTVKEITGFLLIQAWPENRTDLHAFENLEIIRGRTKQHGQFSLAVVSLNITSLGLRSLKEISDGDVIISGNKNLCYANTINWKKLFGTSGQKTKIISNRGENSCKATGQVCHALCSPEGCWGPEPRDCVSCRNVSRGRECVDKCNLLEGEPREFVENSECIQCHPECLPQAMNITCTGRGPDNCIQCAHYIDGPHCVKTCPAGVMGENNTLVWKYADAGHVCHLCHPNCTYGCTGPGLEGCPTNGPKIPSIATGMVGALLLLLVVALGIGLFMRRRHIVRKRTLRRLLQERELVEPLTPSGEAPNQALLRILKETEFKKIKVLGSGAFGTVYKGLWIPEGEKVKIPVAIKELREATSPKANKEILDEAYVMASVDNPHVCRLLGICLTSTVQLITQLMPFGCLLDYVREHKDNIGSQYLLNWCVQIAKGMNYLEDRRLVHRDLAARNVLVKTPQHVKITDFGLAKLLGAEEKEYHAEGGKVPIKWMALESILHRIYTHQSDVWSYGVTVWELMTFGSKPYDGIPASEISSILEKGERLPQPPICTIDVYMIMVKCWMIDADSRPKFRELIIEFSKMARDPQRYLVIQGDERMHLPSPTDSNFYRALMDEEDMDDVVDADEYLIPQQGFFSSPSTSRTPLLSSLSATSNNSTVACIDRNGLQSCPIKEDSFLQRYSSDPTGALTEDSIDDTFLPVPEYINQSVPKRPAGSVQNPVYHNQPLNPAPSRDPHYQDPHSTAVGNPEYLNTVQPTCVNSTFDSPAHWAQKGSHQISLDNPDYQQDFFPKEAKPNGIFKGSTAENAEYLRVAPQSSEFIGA
ITK, sequence (Q08881 whole entry): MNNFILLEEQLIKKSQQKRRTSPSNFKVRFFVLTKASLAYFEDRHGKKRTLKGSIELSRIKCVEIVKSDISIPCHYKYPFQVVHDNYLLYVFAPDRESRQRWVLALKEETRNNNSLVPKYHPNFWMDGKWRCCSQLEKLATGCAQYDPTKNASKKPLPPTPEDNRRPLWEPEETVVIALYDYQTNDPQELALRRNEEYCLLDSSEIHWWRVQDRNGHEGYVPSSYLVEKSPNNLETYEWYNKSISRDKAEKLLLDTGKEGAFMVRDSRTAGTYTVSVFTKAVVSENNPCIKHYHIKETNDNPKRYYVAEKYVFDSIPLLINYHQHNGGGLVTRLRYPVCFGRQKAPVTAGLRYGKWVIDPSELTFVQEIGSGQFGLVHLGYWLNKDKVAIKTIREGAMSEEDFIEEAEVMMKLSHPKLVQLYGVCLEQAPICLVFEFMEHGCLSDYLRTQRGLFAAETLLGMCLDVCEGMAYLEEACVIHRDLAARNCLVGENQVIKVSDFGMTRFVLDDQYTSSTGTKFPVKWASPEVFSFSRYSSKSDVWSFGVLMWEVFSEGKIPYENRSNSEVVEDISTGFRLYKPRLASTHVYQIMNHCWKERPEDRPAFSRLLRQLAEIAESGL
BTK, sequence (Q06187 whole entry): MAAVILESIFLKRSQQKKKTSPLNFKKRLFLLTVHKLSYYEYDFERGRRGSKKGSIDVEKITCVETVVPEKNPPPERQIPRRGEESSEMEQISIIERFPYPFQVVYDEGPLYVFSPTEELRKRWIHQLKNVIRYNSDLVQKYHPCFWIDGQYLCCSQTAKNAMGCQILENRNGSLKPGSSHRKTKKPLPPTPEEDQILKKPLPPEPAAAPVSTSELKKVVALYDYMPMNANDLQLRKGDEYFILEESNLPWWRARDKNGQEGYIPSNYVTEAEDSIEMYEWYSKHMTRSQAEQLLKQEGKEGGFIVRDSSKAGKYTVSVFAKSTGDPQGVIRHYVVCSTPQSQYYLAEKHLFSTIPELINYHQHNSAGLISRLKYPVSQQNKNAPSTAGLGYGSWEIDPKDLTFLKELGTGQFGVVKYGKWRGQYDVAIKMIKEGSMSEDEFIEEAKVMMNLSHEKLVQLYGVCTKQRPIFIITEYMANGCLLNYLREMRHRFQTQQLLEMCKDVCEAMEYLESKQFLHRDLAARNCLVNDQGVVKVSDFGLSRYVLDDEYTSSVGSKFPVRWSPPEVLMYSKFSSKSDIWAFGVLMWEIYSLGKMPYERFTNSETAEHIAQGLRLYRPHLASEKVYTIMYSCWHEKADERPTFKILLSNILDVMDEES
BMX, sequence (P51813 whole entry): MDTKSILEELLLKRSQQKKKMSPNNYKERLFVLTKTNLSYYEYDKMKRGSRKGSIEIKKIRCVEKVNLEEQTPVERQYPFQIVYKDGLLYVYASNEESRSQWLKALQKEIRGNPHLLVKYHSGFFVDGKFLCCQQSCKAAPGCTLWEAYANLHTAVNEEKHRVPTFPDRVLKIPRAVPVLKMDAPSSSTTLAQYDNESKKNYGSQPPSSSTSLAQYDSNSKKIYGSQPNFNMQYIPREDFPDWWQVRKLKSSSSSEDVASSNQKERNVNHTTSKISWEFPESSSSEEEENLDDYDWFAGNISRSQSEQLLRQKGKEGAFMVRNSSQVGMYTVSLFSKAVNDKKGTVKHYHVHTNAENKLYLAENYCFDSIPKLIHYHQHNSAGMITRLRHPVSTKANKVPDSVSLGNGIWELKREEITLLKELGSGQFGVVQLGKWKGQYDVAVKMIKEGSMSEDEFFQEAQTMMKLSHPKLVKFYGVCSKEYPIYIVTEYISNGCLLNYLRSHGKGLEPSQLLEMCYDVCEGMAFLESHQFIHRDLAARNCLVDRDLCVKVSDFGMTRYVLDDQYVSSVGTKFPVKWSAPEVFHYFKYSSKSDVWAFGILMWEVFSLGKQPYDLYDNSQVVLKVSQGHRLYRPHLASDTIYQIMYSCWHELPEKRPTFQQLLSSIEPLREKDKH

In the case of `C=CC(=O)N1CCC(C2CCNn3c2nc(-c2ccc(Oc4ccccc4)cc2)c3C(N)=O)CC1` (single isomer, unassigned) [1b (peak 2)], the IC50 (BTK) is reported as 28.9 nM, the “Selectivity Ratio (BTK and BMX)” value (BMX) is reported as 1.86 and the IC50 (BMX) is reported as 53.9 nM. For the same molecule, the “Selectivity Ratio (BTK and EGFR)” value (EGFR) was 5.87, the IC50 (EGFR) was 170 nM and the IC50 (ITK) was > 30000 nM. For the same molecule, the “Selectivity Ratio (BTK and ITK)” value (ITK) was >1038, the IC50 (TMD8; TMD8, 72 hs) was 102 nM and the IC50 (293T) was 5240 nM.
With `C=CC(=O)N1CCC(C2CCNn3c2nc(-c2ccc(Oc4ccccc4)cc2)c3C(N)=O)CC1` (stereo not shown) [Example 1, 8-(1-acryloylpiperidin-4-yl)-2-(4-phenoxyphenyl)-5,6,7,8-tetrahydroimidazo[1,2-b]pyridazine-3-carboxamide] the IC50 (BTK) was 4.6 nM, the “Selectivity Ratio (BTK and BMX)” value (BMX) was 5.80 and the IC50 (BMX) was 26.7 nM. The “Selectivity Ratio (BTK and EGFR)” value (EGFR) was 19.48, the IC50 (EGFR) was 89.6 nM and the IC50 (ITK) was 13600 nM. For the same molecule, the “Selectivity Ratio (BTK and ITK)” value (ITK) was 2945, the IC50 (TMD8; Homo sapiens, TMD8, TMD8, 72 hs) was 12.3 nM and the IC50 (293T; Homo sapiens, HEK-293T) was 573000 nM.
`CC#CC(=O)N1CCC(C2CCNn3c2nc(-c2ccc(Oc4ccccc4)cc2)c3C(N)=O)CC1` (stereo not shown) [Example 2, 8-[1-(1-Oxo-but-2-ynyl)-piperidin-4-yl]-2-(4-phenoxy-phenyl)-5,6,7,8-tetrahydro-imidazo[1,2-b]pyridazine-3-carboxamide] showed an IC50 (BTK) of 76.4 nM.
`N#C/C(=C\C1CC1)C(=O)N1CCC(C2CCNn3c2nc(-c2ccc(Oc4ccccc4)cc2)c3C(N)=O)CC1` (stereo not shown) [Example 8, 8-[1-(2-Cyano-3-cyclopropyl-acryloyl)-piperidin-4-yl]-2-(4-phenoxy-phenyl)-5,6,7,8-tetrahydro-imidazo[1,2-b]pyridazine-3-carboxamide] was tested, and the IC50 (BTK) was 285 nM.
Work on `C=CC(=O)N1CCC(C2CCNn3c2nc(-c2ccc(Oc4ccc(F)cc4)cc2)c3C(N)=O)CC1` (stereo not shown) [Example 12, 8-(1-acryloylpiperidin-4-yl)-2-(4-(4-fluorophenoxy)phenyl)-5,6,7,8-tetrahydroimidazo[1,2-b]pyridazine-3-carboxamide] yielded an IC50 (BTK) of 49.4 nM.
`CC#CC(=O)N1CCC(C2CCNn3c2nc(-c2ccc(Oc4ccc(F)cc4)cc2)c3C(N)=O)CC1` (stereo not shown) [Example 13, 8-(1-(but-2-ynoyl)piperidin-4-yl)-2-(4-(4-fluorophenoxy)phenyl)-5,6,7,8-tetrahydroimidazo[1,2-b]pyridazine-3-carboxamide] showed an IC50 (BTK) of 122 nM.
For `NC(=O)c1c(-c2ccc(Oc3ccc(F)cc3)cc2)nc2n1NCCC2C1CCN(C(=O)/C=C/C(F)(F)F)CC1` (stereo not shown) [Example 14, (E)-2-(4-(4-fluorophenoxy)phenyl)-8-(1-(4,4,4-trifluorobut-2-enoyl)piperidin-4-yl)-5,6,7,8-tetrahydroimidazo[1,2-b]pyridazine-3-carboxamide], the IC50 (BTK) was 61.5 nM.
For `C=CC(=O)N1CCC(C2CCNn3c2nc(-c2ccc(Oc4ccc(OC)cc4)cc2)c3C(N)=O)CC1` (stereo not shown) [Example 15, 8-(1-acryloylpiperidin-4-yl)-2-(4-(4-methoxyphenoxy)phenyl)-5,6,7,8-tetrahydroimidazo[1,2-b]pyridazine-3-carboxamide], the IC50 (BTK) was 42.6 nM.
With `CC#CC(=O)N1CCC(C2CCNn3c2nc(-c2ccc(Oc4ccc(OC)cc4)cc2)c3C(N)=O)CC1` (stereo not shown) [Example 16, 8-(1-(but-2-ynoyl)piperidin-4-yl)-2-(4-(4-methoxyphenoxy)phenyl)-5,6,7,8-tetrahydroimidazo[1,2-b]pyridazine-3-carboxamide] the IC50 (BTK) was 778 nM.
`COc1ccc(Oc2ccc(-c3nc4n(c3C(N)=O)NCCC4C3CCN(C(=O)/C=C/C(F)(F)F)CC3)cc2)cc1` (stereo not shown) [Example 17, (E)-2-(4-(4-methoxyphenoxy)phenyl)-8-(1-(4,4,4-trifluorobut-2-enoyl)piperidin-4-yl)-5,6,7,8-tetrahydroimidazo[1,2-b]pyridazine-3-carboxamide] was tested, and the IC50 (BTK) was 212 nM.
Molecule `C=CC(=O)N1CC(C2CCNn3c2nc(-c2ccc(Oc4ccccc4)cc2)c3C(N)=O)C1` (stereo not shown) [Example 18, 8-(1-acryloylazetidin-3-yl)-2-(4-phenoxyphenyl)-5,6,7,8-tetrahydroimidazo[1,2-b]pyridazine-3-carboxamide] has an IC50 (BTK) of 37.4 nM.
Molecule `C=CC(=O)N1CCC(C2CCNn3c2nc(-c2ccc(Oc4ccccc4)cc2)c3C(N)=O)C1` (stereo not shown) [Example 21, 8-(1-acryloylpyrrolidin-3-yl)-2-(4-phenoxyphenyl)-5,6,7,8-tetrahydroimidazo[1,2-b]pyridazine-3-carboxamide] has an IC50 (BTK) of 132 nM.
For `C=CC(=O)Nc1ccccc1C1CCNn2c1nc(-c1ccc(Oc3ccccc3)cc1)c2C(N)=O` (stereo not shown) [Example 22, 8-(2-acrylamidophenyl)-2-(4-phenoxyphenyl)-5,6,7,8-tetrahydroimidazo[1,2-b]pyridazine-3-carboxamide], the IC50 (BTK) was 5.4 nM, the “Selectivity Ratio (BTK and BMX)” value (BMX) was 11.94 and the IC50 (BMX) was 64.5 nM. For the same molecule, the “Selectivity Ratio (BTK and EGFR)” value (EGFR) was 3.05, the IC50 (EGFR) was 16.5 nM and the IC50 (ITK) was 27900 nM. The “Selectivity Ratio (BTK and ITK)” value (ITK) was 5160.6.
With `CN(C)C/C=C/C(=O)N1CCC(C2CCNn3c2nc(-c2ccc(Oc4ccccc4)cc2)c3C(N)=O)CC1` (stereo not shown) [Example 25, (E)-8-(1-(4-(dimethylamino)but-2-enoyl)piperidin-4-yl)-2-(4-phenoxyphenyl)-5,6,7,8-tetrahydroimidazo[1,2-b]pyridazine-3-carboxamide] the IC50 (BTK) was 185 nM.
For `C=CC(=O)N1CCC(C2CCn3c2nc(-c2ccc(Oc4ccccc4)cc2)c3C(N)=O)CC1` (stereo not shown) [Example 26, 7-(1-acryloylpiperidin-4-yl)-2-(4-phenoxyphenyl)-6,7-dihydro-5H-pyrrolo[1,2-a]imidazole-3-carboxamide], the IC50 (BTK) was 8.4 nM, the “Selectivity Ratio (BTK and BMX)” value (BMX) was 3.70 and the IC50 (BMX) was 31.1 nM. For the same molecule, the “Selectivity Ratio (BTK and EGFR)” value (EGFR) was 9.75, the IC50 (EGFR) was 81.9 nM and the IC50 (ITK) was 4660 nM. The “Selectivity Ratio (BTK and ITK)” value (ITK) was 555.2.
Molecule `C=CC(=O)N1CCC(C2CCNn3c2nc(-c2ccc(OC)cc2)c3C(N)=O)CC1` (stereo not shown) [Example 27, 8-(1-acryloylpiperidin-4-yl)-2-(4-methoxyphenyl)-5,6,7,8-tetrahydroimidazo[1,2-b]pyridazine-3-carboxamide] has an IC50 (BTK) of 242 nM.
For `C=CC(=O)N1CCC(C2CCn3c2nc(-c2ccc(Oc4ccccc4)c(OC)c2)c3C(N)=O)CC1` (stereo not shown) [Example 28, 7-(1-acryloylpiperidin-4-yl)-2-(3-methoxy-4-phenoxyphenyl)-6,7-dihydro-5H-pyrrolo[1,2-a]imidazole-3-carboxamide], the IC50 (BTK) was 10.7 nM, the “Selectivity Ratio (BTK and BMX)” value (BMX) was 7.51 and the IC50 (BMX) was 80.3 nM. For the same molecule, the “Selectivity Ratio (BTK and EGFR)” value (EGFR) was 35.66, the IC50 (EGFR) was 382 nM and the IC50 (ITK) was > 30000 nM. The “Selectivity Ratio (BTK and ITK)” value (ITK) was >2803.7.
In the case of `C=CC(=O)N1CCC(C2CCNn3c2nc(-c2ccc(Oc4ccccc4)c(OC)c2)c3C(N)=O)CC1` (stereo not shown) [Example 29, 8-(1-acryloylpiperidin-4-yl)-2-(3-methoxy-4-phenoxyphenyl)-5,6,7,8-tetrahydroimidazo[1,2-b]pyridazine-3-carboxamide], the IC50 (BTK) is reported as 46.5 nM.
